Results: patent US20160310584A1, “FORMULATIONS FOR NEOPLASIA VACCINES” (THE BROAD INSTITUTE INC., priority 2013, published 2016)
Read-outs that look alike come from different tables or passages of the source. Where a SMILES comes first, the peptide text is derived from it. Where no end group is shown, it is not given here.

How the values were obtained:
Type in all cases: physicochemical
pH of peptide solutions = assay: pH of peptide solutions
Description: (§1) In a representative procedure, peptides were weighed and corrected for % peptide content, and then dissolved in DMSO to a concentration of 50 mg/mL. The DMSO/Peptide solution was then diluted with 5 mM sodium succinate in D5W to a 2 mg/mL peptide concentration.

[1] = Peptide solubility evaluation: dissolution in DMSO, dilution in D5W with or without succinate
Description: as §1
Additional peptide solubility conditions were tested. Peptides CS6709, CS6712, CS6720, CS6726, and CS6783 were weighed at approximately 10 mg each. The peptides were then dissolved in approximately 200 μL USP grade DMSO to obtain a 50 mg/mL concentration for each peptide. […] Additional 50 μL increments of DMSO were added to Peptide CS6709 up to 400 μL; for a total of 600 μL of DMSO.
Based on gross weight and peptide content, 15 mg (net weight) or slightly more of each individual peptide are weighed and 100% USP Grade DMSO […] is added to achieve a final peptide concentration of 50 mg/ml.

[2] = Dissolution of peptide in D5W without using DMSO; details: small amount of peptide (<1 mg)
[3] = Freeze/thaw and frozen storage stability (RP-HPLC, pH, visual inspection); details: −20° C. stability study
Description: Two individual peptides were dissolved in DMSO/D5W and placed on stability at two temperatures (−20° C. and −80° C.). These peptides were evaluated (RP-HPLC and pH and visual inspection) for up to 24 weeks. […] Any small changes appear to be due to assay variability as no trends were noted to be evaluated.
A peptide pool (Pool 4) consisting of five peptides was prepared by dissolution in DMSO, dilution with D5W/Succinate (5 mM) to 2 mg/ml and pooling to a final peptide concentration of 400 μg per ml and a final DMSO concentration of 4%. After preparation, peptides were filtered with a 25 mm Pall PES filter (Cat #4612) and dispensed into Nunc Cryo vials (#375418) in one ml aliquots. Samples were analyzed at time zero and at 2 and 4 weeks to date. Additional samples are analyzed at 8 and 24 weeks.

[4] = DMSO/D5W, Table 4, Y/N, diluted to 2 mg/ml, read-out: Solubility In DMSO/D5W
[5] = DMSO/D5W/succinate, Table 4, Y/N, read-out: Solubility in DMSO/D5W/Succinate
[6] = Table 4, symbol X not defined, peptides dissolved at 50 mg/ml in 100% DMSO, read-out: Solubility in DMSO
[7] = Table 4, Y/N, diluted to 2 mg/ml, read-out: Solubility In DMSO/D5W

Molecule | solubility [1, 4] | pH of peptides in DMSO/D5W/5 mM S. Succinate spike (pH of peptide solutions) | pH of peptides in DMSO/D5W/5 mM Succinate and Hiltonol (pH of peptide solutions) | also measured
H-ALSLTPGLRIGPSGLFLVFLAESAVDKGHPNRS-OH [CS7410] | – | 6.46 | 6.88 | –
H-IGALNPKRAAFFAEHYESWE-OH [CS7420] | – | 6.38 | 6.56 | solubility [1]: > 2000 µg/mL
H-GTKALQLHSIAGRWPRMEPWVVESMSLGVP-OH [CS7415] | – | 6.61 | 6.81 | –
H-LLTDRNTSGTTFTLLGVSDYPELQVP-OH [CS7409] | – | 6.32 | 6.62 | solubility [1]: > 2000 µg/mL; solubility [1, 5]: > 2000 µg/mL
H-YLLPKTAVVLRCPALRVRKP-OH [CS7418] | – | 6.76 | 6.96 | –
H-AHRQGEKQHLLPVFSRLALRLPWRHSVQL-OH [CS6941] | – | 6.49 | 6.78 | –
H-RGLHSQGLGRGRIAMAQTAGVLRSLEQEE-OH [CS6711] | > 2000 µg/mL | – | – | –
H-LPVFIGNIAVNHAPVSLRPGLGLPPGAPPGTVP-OH [CS7438] | – | 6.78 | 6.96 | –
H-KPKKVAGAATPKKSIKRTPKKVKKPATAAGTKK-OH [CS6717] | > 2000 µg/mL | – | – | –
H-LTDLPGRIRVAPQQNDLDSPQQISISNAE-OH [CS6709] | – | – | – | Dissolution directly in D5W without using DMSO [2]: could be dissolved; solubility [1, 6]: < 50000 µg/mL
H-PLMQTELHQLVPEADPEEMA-OH [CS7430] | – | 6.23 | 6.37 | –
H-LLTDRNTSGTTFTLLGVSDYPELQVPIPQAGLG-OH [CS7408] | – | 6.31 | 6.75 | solubility [1]: > 2000 µg/mL; solubility [1, 5]: > 2000 µg/mL
H-AESAQRQGPLGGGEQSANEF-OH [CS7417] | – | 6.28 | 6.5 | solubility [1]: > 2000 µg/mL; solubility [1, 5]: > 2000 µg/mL
H-KKNITNLSRLVVRPDTDAVY-OH [CS7431] | – | 6.45 | 6.69 | –
H-SHVEKAHITAESAQRQGPNGGGEQSANEF-OH [CS6708] | > 2000 µg/mL | – | – | –
KGASLDAGWGSPRWTTTRMTSASAGRSTRA [CS7414] | – | 6.71 | 6.99 | Solubility in DMSO/D5W/Succinate [1]: Y

Molecule | solubility [1, 4] | pH of peptides in DMSO/D5W/5 mM S. Succinate spike (pH of peptide solutions) | pH of peptides in DMSO/D5W/5 mM Succinate and Hiltonol (pH of peptide solutions) | also measured
H-WDGPPENDMLLKEICGSLIP-OH [CS7432] | – | 6.22 | 6.45 | –
H-SKRGVGAKTLLLPDPFLFWPCLEGTRRSL-OH [CS6934] | – | 6.57 | 6.79 | Heterodimer formation (mass spectrometry) [3]: can form a heterodimer
H-EDLHLLSVPCPSYKKLPLLIFPSHRRAPLLSA-OH [CS6918] | – | – | – | solubility [1, 7]: > 2000 µg/mL
H-SGQPAPEETVLFLGLLHGLLLILRRLRGG-OH [CS6937] | – | 6.51 | 6.76 | solubility [1]: > 2000 µg/mL
H-AESAQRQGPNGGGEQSANEF-OH [CS7416] | – | 6.31 | 6.54 | –
H-LRVFIGNIAVNHAPVSLRPGLGLPPGAPPGTVP-OH [CS7412] | – | 6.61 | 6.96 | solubility [1]: > 2000 µg/mL
H-PPYPYSSPSLVLPTEPHTPKSLQQPGLPS-OH [CS6715] | > 2000 µg/mL | – | – | –
H-EPDQEAVQSSTYKDCNTLHLPTERFSPVR-OH [CS6710] | > 2000 µg/mL | – | – | –
H-VAGLAASGLHGSAWLVPGEQPVSGPHHGKQ-OH [CS6931] | – | 6.42 | 6.66 | –
H-KLAWRGRISSSGCPSMTSPPSPMFGMTLHT-OH [CS6919] | – | 6.74 | 6.99 | Heterodimer formation (mass spectrometry) [3]: can form a heterodimer
H-VEQGHVRVGPDVVTHPAFLV-OH [CS7427] | – | 6.34 | 6.52 | –
H-DSAVDKGHPNRSALSLTPGLRIGPSGLFLVFLA-OH [CS7411] | – | 6.53 | 6.94 | –
H-VQLSIQDVIRRARLSTVPTAQRVALRSGWI-OH [CS7413] | – | 6.73 | 7.02 | –
H-PQLAGGGGSGAPGEHPLLPGGAPLPAGLF-OH [CS6716] | > 2000 µg/mL | – | – | –
H-LKDSNSWPPSNKRGFDTEDAHKSNATPVP-OH [CS6712] | – | – | – | Dissolution directly in D5W without using DMSO [2]: could be dissolved
H-SYKKLPLLIFPSHRRAPLLSATGDRGFSV-OH [CS6936] | – | – | – | solubility [1, 7]: > 2000 µg/mL

Now from value to molecule, other results behind:

solubility [1, 4] | Molecule | pH of peptides in DMSO/D5W/5 mM S. Succinate spike (pH of peptide solutions) | pH of peptides in DMSO/D5W/5 mM Succinate and Hiltonol (pH of peptide solutions) | also measured
< 2000 µg/mL | H-LSVPFTCGVNFGDSIEDLEI-OH [CS7428] | – | – | –
> 2000 µg/mL | H-GASRRSSASQGAGSLGLSEEKTLRSGGGP-OH [CS6781] | – | – | –
> 2000 µg/mL | H-EEGLLPEVFGAGVPLALCPAVPSAAKPHRPRVL-OH [CS6933] | – | – | –
> 2000 µg/mL | H-LPVFIGNIAVNHAPVSLRPGLGLPPGAPPLVVP-OH [CS6730] | – | – | –
> 2000 µg/mL | H-PIQVFYTKQPQNDYLHVALVSVFQIHQEAPSSQ-OH [CS6729] | – | – | –
> 2000 µg/mL | H-SKLPYPVAKSGKRALARGPAPTEKTPHSGAQLG-OH [CS6719] | – | – | –
< 2000 µg/mL | H-VSWGKKVQPIDSILADWNEDIEAFEMMEKD-OH [CS6942] | – | – | –
> 2000 µg/mL | H-PIERVKKNLLKKEYNVSDDSMKLGGNNTSEKAD-OH [CS6721] | – | – | –
> 2000 µg/mL | H-KKEKAEKLEKERQRHISKPLLGGPFSLTTHTGE-OH [CS6718] | – | – | –
< 2000 µg/mL | H-DASDFLPDTQLFPHFTELLLPLDPLEGSSV-OH [CS6935] | – | – | –
> 2000 µg/mL | CC[C@H](C)[C@H](NC(=O)[C@H](CS)NC(=O)[C@H](CC(C)C)NC(=O)[C@@H](N)CC(=O)O)C(=O)N[C@@H](CS)C(=O)N1CCC[C@H]1C(=O)N[C@@H](CCCNC(=N)N)C(=O)N[C@@H](CO)C(=O)N[C@@H](Cc1c[nH]cn1)C(=O)N[C@@H](CCCNC(=N)N)C(=O)NCC(=O)N[C@@H](C)C(=O)N[C@@H](Cc1ccccc1)C(=O)N[C@@H](CCC(N)=O)C(=O)N[C@@H](CC(C)C)C(=O)N[C@@H](CC(C)C)C(=O)N1CCC[C@H]1C(=O)N[C@@H](CO)C(=O)N[C@@H](C)C(=O)N[C@@H](CC(C)C)C(=O)N[C@@H](CC(C)C)C(=O)N[C@H](C(=O)N[C@@H](CCCNC(=N)N)C(=O)N[C@H](C(=O)N[C@@H](CC(C)C)C(=O)N[C@@H](CCC(=O)O)C(=O)NCC(=O)N[C@@H](CO)C(=O)N[C@@H](CC(=O)O)C(=O)N[C@@H](CO)C(=O)O)C(C)C)C(C)C [CS6932] (H-DLCICPRSHRGAFQLLPSALLVRVLEGSDS-OH) | – | – | –
> 2000 µg/mL | H-GKSRGQQAQDRARHAAGAAPARPLGALREQ-OH [CS6938] | – | – | –
> 2000 µg/mL | H-SPTEPSTKLPGFDSCGNTEIAERKIKRIYGGFK-OH [CS6720] | – | – | Dissolution directly in D5W without using DMSO [2]: could be dissolved
> 2000 µg/mL | H-GTYLQGTASALSQSQERPPSVNRVPPSSPSSQE-OH [CS6725] | – | – | –
> 2000 µg/mL | H-SYDSVIRELLQKPNVRVVVL-OH [CS7425] | 6.44 | 6.65 | solubility [1, 5]: < 2000 µg/mL; solubility [1, 6]: < 50000 µg/mL
> 2000 µg/mL | H-DSAVDKGHPNRSALSLTPGLRIGPSGIPQAGLG-OH [CS6726] | – | – | Dissolution directly in D5W without using DMSO [2]: could be dissolved
> 2000 µg/mL | H-APALGPGAASVASRCGLDPALAPGGSHMLRA-OH [CS6927] | – | – | –
> 2000 µg/mL | H-DMAWRRNSRLYWLIKMVEQWQEQHLPSLSS-OH [CS6943] | – | – | –
> 2000 µg/mL | H-FRLIWRSVKNGKSSREQELSWNCSHQVPSLGA-OH [CS6917] | – | – | –
> 2000 µg/mL | H-LAASGLHGSAWLVPGEQPVSGPHHGKQPAGV-OH [CS6930] | – | – | –
> 2000 µg/mL | H-GLLSDGSGLGQITWASAEHLQRPGAGAELA-OH [CS6914] | – | – | –
